For assay [1], the target named is T1, PonAAS2.
T1 construct: recombinant, fusion protein with trigger factor (pCOLD TF)
The experiment in a line: enzyme inhibition of Trp→IAAld conversion, Lineweaver-Burk kinetics (IC50 […]). It counts as biochemical, Pontania sp.

The target in assay [2] is T2, PonAAS1.
T2 construct: recombinant, fusion protein with trigger factor (pCOLD TF)
The assay is described as follows: enzyme inhibition of 5-HTrp→serotonin conversion, dose-response. The assay is classed as biochemical, Pontania sp.

For orientation: Ki means the dissociation constant of the complex between target and ligand, obtained from inhibition or displacement. What is called IC50 is the point on the concentration scale where inhibition reaches its midpoint. High values mean weaker potency, low ones greater potency. As to `Oc1ccccc1-c1nc(-c2ccc3c(c2)CCO3)n[nH]1` [HTS10550, 2-[3-(2,3-dihydro-1-benzofuran-5-yl)-1H-1,2,4-triazol-5-yl]phenol], in assay [1], the affinity corresponds to a Ki of 0.2 µM. Further, the IC50 in assay [2] was ~20 µM.

The values are drawn from PMC10380194, “Conferring High IAA Productivity on Low-IAA-Producing Organisms with PonAAS2, an Aromatic Aldehyde Synthase of a Galling Sawfly, and Identification of Its Inhibitor” (Insects, 2023).
